Experimental data: PMC7529893, “Structural basis for substrate recognition and chemical inhibition of oncogenic MAGE ubiquitin ligases” (Nature Communications, 2020)

The compounds below were run against T1, MAGE-A11:PCF11 interaction (GST-MAGE-A11 and FAM-PCF11_4) (Homo sapiens, UniProt P43364) (assay: TR-FRET primary / single point screen at 15 µM). Details: single point TR-FRET screening of 797 quinoline compounds against MAGE-A11:PCF11.
T1 construct: GST-MAGE-A11 MHD (human MAGE-A11 MHD amino acid 218-429); made in house; host or cells: E. coli BL21(DE3)
T1 sequence (P43364 218-429): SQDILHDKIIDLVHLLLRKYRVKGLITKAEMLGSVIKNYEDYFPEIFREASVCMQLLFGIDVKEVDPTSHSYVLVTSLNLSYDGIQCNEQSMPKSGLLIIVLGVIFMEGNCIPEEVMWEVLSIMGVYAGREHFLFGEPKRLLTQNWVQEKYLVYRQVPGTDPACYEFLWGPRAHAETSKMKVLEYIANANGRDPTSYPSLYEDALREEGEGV
Format: binding
In short: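 TR-FRET 520/490 nm emission ratio was read after 90 min at room temperature. Wells held 5 nM GST-MAGE-A11, 5 nM Tb-anti-GST, 200 nM FAM-PCF11_4 and 15 µM compound in Tris pH 7.5 buffer with MgCl2, BSA and DTT. %Inhibition was scaled to DMSO and minus-MAGE-A11 controls.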

Compound	percent inhibition (TR-FRET)
COc1ccc2nc3cc(Cl)ccc3c(NCCCNCc3cc(OC(F)(F)F)ccc3OC)c2c1 [SJ000521001]	-231.84
COc1ccc2nc3cc(Cl)ccc3c(NCCCNCc3cc(C(F)(F)F)ccc3OC)c2c1 [SJ000521002]	-290.163
COc1ccc2nc3cc(Cl)ccc3c(NCCCNCC3CCOC3)c2c1 (centres unmarked) [SJ000521003]	-442.307
COc1ccc2nc3cc(Cl)ccc3c(NCCCNCc3cccc(F)c3)c2c1 [SJ000521004]	-366.222
CCc1ccc(CNCCCNc2c3ccc(Cl)cc3nc3ccc(OC)cc23)cc1 [SJ000521005]	-390.355
COc1ccc2nc3cc(Cl)ccc3c(NCCCNCc3nccn3C)c2c1 [SJ000521006]	-279.905
Clc1ccc2c(NCCCCN(Cc3ccccc3)Cc3ccccc3)ccnc2c1 [SJ000522718]	17.3464
Clc1ccc2c(NCCCCN(Cc3ccccc3)Cc3ccc4c(c3)OCO4)ccnc2c1 [SJ000522723]	16.5062
COc1ccc(CN(CCCCNc2ccnc3cc(Cl)ccc23)Cc2ccccc2)cc1 [SJ000522724]	6.683
Fc1ccc(CN(CCCCNc2ccnc3cc(Cl)ccc23)Cc2ccccc2)cc1 [SJ000522725]	30.2004
COc1ccccc1CN(CCCCNc1ccnc2cc(Cl)ccc12)Cc1ccccc1 [SJ000522726]	19.4021

Same assay, conditions: single point TR-FRET screening of quinoline compounds against MAGE-A11:PCF11; 15 µM

Compound	percent inhibition (TR-FRET)
CCCN(CCCNc1ccnc2cc(C(F)(F)F)ccc12)Cc1cncc(Br)c1 [SJ000521007]	4.323
CCCN(CCCNc1ccnc2cc(C(F)(F)F)ccc12)Cc1cccc(F)c1 [SJ000521008]	27.8488
CCCN(CCCNc1ccnc2cc(C(F)(F)F)ccc12)Cc1ccc(CC)cc1 [SJ000521009]	31.7696
CCCN(CCCNc1ccnc2cc(C(F)(F)F)ccc12)Cc1nc(C)cs1 [SJ000521010]	0.8927
CCCN(CCCNc1ccnc2cc(C(F)(F)F)ccc12)CCOCc1ccccc1 [SJ000521011]	25.8235
CCCN(CCCNc1ccnc2cc(C(F)(F)F)ccc12)Cc1cc(F)cc(F)c1O [SJ000521012]	14.997
CCCN(CCCNc1ccnc2cc(C(F)(F)F)ccc12)Cc1ccc(OC)c(F)c1 [SJ000521013]	21.7574
CCCN(CCCNc1ccnc2cc(C(F)(F)F)ccc12)Cc1cc(F)ccc1C [SJ000521014]	20.6371
CCCN(CCCNc1ccnc2cc(C(F)(F)F)ccc12)Cc1ccc(Cl)c(C(F)(F)F)c1 [SJ000521015]	11.045
Cn1cccc1CNCCCNc1ccnc2cc(Cl)ccc12 [SJ000521019]	18.9568
Cn1cc(CNCCCNc2ccnc3cc(Cl)ccc23)c2ccccc21 [SJ000521020]	18.4667
COC(=O)CCCCCNCCCNc1ccnc2cc(Cl)ccc12 [SJ000521021]	39.1213
Clc1ccc2c(NCCCNCc3nccs3)ccnc2c1 [SJ000521023]	4.988
CC(C)(C)CCNCCCNc1ccnc2cc(Cl)ccc12 [SJ000521026]	9.225
CCCCNCCCNc1ccnc2cc(Cl)ccc12 [SJ000521027]	8.4544
Clc1ccc2c(NCCCNCc3cc(Br)cs3)ccnc2c1 [SJ000521028]	22.1075
Clc1ccc2c(NCCCNCc3cc4ccccc4o3)ccnc2c1 [SJ000521029]	17.9065
Clc1ccc2c(NCCCNCc3cc4ccccc4s3)ccnc2c1 [SJ000521032]	30.1342
Clc1ccc2c(NCCCNCc3csc4ccccc34)ccnc2c1 [SJ000521033]	33.3803
Clc1ccc2c(NCCCNCc3nc4ccccc4s3)ccnc2c1 [SJ000521034]	4.695
Clc1ccc2c(NCCCNCc3cncc(Br)c3)ccnc2c1 [SJ000521037]	7.014

Compound	percent inhibition (TR-FRET)
Clc1ccc2c(NCCCNCC3CCOC3)ccnc2c1 (centres unmarked) [SJ000521038]	0.4026
Cn1ccnc1CNCCCNc1ccnc2cc(Cl)ccc12 [SJ000521040]	1.449
Cn1cccc1CNCCCNc1ccnc2cc(C(F)(F)F)ccc12 [SJ000521041]	-6.879
FC(F)(F)c1ccc2c(NCCCNCc3cccnc3)ccnc2c1 [SJ000521042]	15.0359
Cn1cc(CNCCCNc2ccnc3cc(C(F)(F)F)ccc23)c2ccccc21 [SJ000521043]	29.109
COC(=O)CCCCCNCCCNc1ccnc2cc(C(F)(F)F)ccc12 [SJ000521044]	19.5869
FC(F)(F)c1ccc2c(NCCCNCc3nccs3)ccnc2c1 [SJ000521046]	7.779
CC(C)(C)CCNCCCNc1ccnc2cc(C(F)(F)F)ccc12 [SJ000521053]	27.3587
CCCCNCCCNc1ccnc2cc(C(F)(F)F)ccc12 [SJ000521055]	18.5367
FC(F)(F)c1ccc2c(NCCCNCc3cc(Br)cs3)ccnc2c1 [SJ000521056]	32.7178
FC(F)(F)c1ccc2c(NCCCNCc3cc4ccccc4o3)ccnc2c1 [SJ000521057]	27.4843
FC(F)(F)c1ccc2c(NCCCNCc3cc4ccccc4s3)ccnc2c1 [SJ000521060]	35.6327
FC(F)(F)c1ccc2c(NCCCNCc3csc4ccccc34)ccnc2c1 [SJ000521061]	41.8599
FC(F)(F)c1ccc2c(NCCCNCc3nc4ccccc4s3)ccnc2c1 [SJ000521062]	14.4336
FC(F)(F)c1ccc2c(NCCCNCC3CCOC3)ccnc2c1 (centres unmarked) [SJ000521065]	15.5598
Cn1ccnc1CNCCCNc1ccnc2cc(C(F)(F)F)ccc12 [SJ000521068]	10.1938
Clc1ccc2c(NCCCN(Cc3ccccc3)Cc3ccc[nH]3)ccnc2c1 [SJ000522717]	20.4621
Clc1ccc2c(NCCCN(Cc3ccccc3)Cc3ccc4c(c3)OCO4)ccnc2c1 [SJ000522719]	9.001
COc1ccc(CN(CCCNc2ccnc3cc(Cl)ccc23)Cc2ccccc2)cc1 [SJ000522720]	11.7837
Fc1ccc(CN(CCCNc2ccnc3cc(Cl)ccc23)Cc2ccccc2)cc1 [SJ000522721]	18.0772
COc1ccccc1CN(CCCNc1ccnc2cc(Cl)ccc12)Cc1ccccc1 [SJ000522722]	4.43
